Source: paper PMC4854315, “Discovery of a novel allosteric inhibitor-binding site in ERK5: comparison with the canonical kinase hinge ATP-binding site” (Acta Crystallographica. Section D, Structural Biology, 2016)

Key:
Test in all cases: Z'-LYTE kinase panel
Type in all cases: biochemical
PLK3 = biological target: T1, PLK3 (Homo sapiens, UniProt Q9H4B4)
T1 construct: purchased ThermoFisher (SelectScreen, Z'-LYTE)
In short: (§1)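 Z′-LYTE, standard conditions; 10 µM test compound; values = % inhibition; broad panel of 225 kinases.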

ABL2 (Arg) = biological target: T2, ABL2 (Arg) (Homo sapiens, UniProt P42684)
T2 construct: purchased ThermoFisher (SelectScreen, Z'-LYTE)
T2 sequence (P42684 whole entry): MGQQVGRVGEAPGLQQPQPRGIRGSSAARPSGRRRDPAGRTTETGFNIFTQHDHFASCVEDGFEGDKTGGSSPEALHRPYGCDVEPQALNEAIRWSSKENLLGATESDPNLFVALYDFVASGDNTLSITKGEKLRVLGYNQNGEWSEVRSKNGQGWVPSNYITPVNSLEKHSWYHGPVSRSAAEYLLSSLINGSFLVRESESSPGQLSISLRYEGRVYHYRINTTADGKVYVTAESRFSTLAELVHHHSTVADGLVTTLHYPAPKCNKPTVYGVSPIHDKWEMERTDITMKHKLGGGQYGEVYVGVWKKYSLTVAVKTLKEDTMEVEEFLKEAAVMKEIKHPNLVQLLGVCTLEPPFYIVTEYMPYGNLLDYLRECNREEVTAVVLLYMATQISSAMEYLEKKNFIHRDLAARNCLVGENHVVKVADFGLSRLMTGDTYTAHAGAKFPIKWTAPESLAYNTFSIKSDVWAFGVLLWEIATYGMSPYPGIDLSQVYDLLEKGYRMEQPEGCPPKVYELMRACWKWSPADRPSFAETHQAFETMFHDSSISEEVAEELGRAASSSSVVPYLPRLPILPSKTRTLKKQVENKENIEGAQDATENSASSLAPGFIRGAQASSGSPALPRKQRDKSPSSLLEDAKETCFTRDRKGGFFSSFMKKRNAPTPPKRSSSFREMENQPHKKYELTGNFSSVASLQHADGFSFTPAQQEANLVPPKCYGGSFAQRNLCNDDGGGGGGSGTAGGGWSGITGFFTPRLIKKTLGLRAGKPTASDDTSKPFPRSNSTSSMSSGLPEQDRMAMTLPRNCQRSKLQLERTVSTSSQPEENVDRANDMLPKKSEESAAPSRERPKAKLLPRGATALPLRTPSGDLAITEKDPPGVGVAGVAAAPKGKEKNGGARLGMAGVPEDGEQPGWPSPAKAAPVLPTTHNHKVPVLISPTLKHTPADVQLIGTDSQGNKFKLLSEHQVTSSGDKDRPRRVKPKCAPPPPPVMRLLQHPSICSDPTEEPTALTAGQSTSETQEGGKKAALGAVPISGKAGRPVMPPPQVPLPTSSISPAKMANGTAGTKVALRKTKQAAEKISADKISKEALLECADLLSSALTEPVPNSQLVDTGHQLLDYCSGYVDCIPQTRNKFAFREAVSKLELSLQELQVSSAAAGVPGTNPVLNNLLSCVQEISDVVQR
In short: as §1

FYN = biological target: T3, FYN (Homo sapiens, UniProt P06241)
T3 construct: purchased ThermoFisher (SelectScreen, Z'-LYTE)
In short: as §1

NEK7 = biological target: T4, NEK7 (Homo sapiens, UniProt Q8TDX7)
T4 construct: purchased ThermoFisher (SelectScreen, Z'-LYTE)
T4 sequence (Q8TDX7 whole entry): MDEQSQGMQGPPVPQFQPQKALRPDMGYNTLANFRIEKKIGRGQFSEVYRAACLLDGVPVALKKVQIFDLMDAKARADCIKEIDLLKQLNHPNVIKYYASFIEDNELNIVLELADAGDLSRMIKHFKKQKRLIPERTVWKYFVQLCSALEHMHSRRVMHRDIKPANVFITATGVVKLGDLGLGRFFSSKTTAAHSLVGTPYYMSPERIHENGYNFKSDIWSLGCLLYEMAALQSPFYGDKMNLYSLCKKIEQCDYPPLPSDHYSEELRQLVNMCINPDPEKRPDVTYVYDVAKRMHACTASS
In short: as §1

MARK1 (MARK) = biological target: T5, MARK1 (MARK) (Homo sapiens, UniProt Q9P0L2)
T5 construct: purchased ThermoFisher (SelectScreen, Z'-LYTE)
T5 sequence (Q9P0L2 whole entry): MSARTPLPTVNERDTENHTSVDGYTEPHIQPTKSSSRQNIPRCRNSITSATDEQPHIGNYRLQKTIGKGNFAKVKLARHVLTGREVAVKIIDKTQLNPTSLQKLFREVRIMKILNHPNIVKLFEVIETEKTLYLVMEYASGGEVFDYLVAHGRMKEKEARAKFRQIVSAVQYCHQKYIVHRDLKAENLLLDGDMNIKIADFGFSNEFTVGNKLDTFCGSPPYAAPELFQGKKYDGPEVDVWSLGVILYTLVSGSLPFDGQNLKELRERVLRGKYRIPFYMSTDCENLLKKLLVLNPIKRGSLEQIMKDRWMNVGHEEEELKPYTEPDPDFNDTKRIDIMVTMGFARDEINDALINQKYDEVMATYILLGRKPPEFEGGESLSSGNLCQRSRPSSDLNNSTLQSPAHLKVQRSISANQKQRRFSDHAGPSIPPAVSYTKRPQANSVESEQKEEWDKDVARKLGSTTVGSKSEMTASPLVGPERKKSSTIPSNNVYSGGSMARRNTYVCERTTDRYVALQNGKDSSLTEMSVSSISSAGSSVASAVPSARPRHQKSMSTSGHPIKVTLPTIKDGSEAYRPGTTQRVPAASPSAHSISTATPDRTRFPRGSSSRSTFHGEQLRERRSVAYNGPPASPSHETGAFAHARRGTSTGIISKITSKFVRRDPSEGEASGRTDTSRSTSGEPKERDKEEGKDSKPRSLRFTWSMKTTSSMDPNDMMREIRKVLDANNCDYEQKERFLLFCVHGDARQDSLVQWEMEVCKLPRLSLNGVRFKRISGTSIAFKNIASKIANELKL
In short: as §1

NTRK3 (TRKC) = biological target: T6, NTRK3 (TRKC) (Homo sapiens, UniProt Q16288)
T6 construct: purchased ThermoFisher (SelectScreen, Z'-LYTE)
T6 sequence (Q16288 32-839): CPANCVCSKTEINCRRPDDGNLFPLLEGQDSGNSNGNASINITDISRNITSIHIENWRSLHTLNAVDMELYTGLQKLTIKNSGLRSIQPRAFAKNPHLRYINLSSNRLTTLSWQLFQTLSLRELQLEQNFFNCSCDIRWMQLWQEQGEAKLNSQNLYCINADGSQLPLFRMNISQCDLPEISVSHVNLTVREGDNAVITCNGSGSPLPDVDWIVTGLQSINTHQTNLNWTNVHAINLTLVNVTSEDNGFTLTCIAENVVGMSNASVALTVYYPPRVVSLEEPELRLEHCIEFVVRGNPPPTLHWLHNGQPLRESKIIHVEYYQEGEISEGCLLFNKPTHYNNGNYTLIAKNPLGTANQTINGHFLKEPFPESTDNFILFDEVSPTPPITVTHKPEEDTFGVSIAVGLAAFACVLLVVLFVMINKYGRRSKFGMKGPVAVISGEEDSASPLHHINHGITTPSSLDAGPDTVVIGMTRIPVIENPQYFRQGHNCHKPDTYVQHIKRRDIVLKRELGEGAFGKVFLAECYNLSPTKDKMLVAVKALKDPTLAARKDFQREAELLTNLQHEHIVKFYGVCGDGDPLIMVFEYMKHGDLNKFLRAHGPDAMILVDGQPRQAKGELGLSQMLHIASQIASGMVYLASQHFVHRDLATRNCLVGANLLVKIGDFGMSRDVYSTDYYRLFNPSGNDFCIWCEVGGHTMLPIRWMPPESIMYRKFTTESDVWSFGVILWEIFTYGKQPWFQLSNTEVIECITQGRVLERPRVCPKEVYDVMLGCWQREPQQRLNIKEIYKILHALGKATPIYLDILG
In short: as §1

FRAP1 (mTOR) = biological target: T7, FRAP1 (mTOR) (Homo sapiens, UniProt P42345)
T7 construct: purchased ThermoFisher (SelectScreen, Z'-LYTE)
In short: as §1

PRKCH (PKC eta) = biological target: T8, PRKCH (PKC eta) (Homo sapiens, UniProt P24723)
T8 construct: purchased ThermoFisher (SelectScreen, Z'-LYTE)
T8 sequence (P24723 whole entry): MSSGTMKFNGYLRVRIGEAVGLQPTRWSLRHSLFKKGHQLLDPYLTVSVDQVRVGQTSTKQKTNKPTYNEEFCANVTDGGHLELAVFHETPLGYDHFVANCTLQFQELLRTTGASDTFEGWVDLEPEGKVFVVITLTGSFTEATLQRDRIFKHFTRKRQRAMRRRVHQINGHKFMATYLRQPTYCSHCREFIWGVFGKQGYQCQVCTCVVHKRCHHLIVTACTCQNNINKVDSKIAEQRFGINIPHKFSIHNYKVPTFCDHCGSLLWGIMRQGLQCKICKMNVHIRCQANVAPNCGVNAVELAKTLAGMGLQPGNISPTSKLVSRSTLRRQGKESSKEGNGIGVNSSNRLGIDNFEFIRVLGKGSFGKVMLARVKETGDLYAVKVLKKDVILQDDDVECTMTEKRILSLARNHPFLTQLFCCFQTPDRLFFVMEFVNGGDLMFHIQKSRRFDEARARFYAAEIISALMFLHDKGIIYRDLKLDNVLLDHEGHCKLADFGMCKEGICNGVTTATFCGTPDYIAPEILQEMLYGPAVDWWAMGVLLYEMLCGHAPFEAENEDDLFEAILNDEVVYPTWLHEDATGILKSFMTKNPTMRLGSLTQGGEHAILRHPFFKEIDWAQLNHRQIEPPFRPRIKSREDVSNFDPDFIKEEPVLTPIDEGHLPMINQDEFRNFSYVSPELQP
In short: as §1

PDGFRB (PDGFR beta) = biological target: T9, PDGFRB (PDGFR beta) (Homo sapiens, UniProt P09619)
T9 construct: purchased ThermoFisher (SelectScreen, Z'-LYTE)
In short: as §1

MAPK10 (JNK3) = biological target: T10, MAPK10 (JNK3) (Homo sapiens, UniProt P53779); conditions: 10 µM compound; ATP 100
T10 construct: purchased ThermoFisher (SelectScreen, Z'-LYTE)
T10 sequence (P53779 whole entry): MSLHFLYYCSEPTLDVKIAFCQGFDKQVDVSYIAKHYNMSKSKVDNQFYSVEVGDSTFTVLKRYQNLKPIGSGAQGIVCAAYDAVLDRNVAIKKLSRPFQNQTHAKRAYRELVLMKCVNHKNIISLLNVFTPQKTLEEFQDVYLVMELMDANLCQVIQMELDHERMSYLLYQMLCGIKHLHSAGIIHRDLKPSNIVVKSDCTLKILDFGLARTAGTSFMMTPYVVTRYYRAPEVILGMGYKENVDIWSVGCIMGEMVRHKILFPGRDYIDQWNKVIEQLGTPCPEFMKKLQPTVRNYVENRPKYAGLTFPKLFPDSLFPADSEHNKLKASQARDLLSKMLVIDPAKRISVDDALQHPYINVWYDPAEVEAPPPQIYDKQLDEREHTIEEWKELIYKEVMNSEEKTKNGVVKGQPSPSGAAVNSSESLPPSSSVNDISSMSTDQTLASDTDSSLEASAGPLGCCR
In short: as §1

GRK7 = biological target: T11, GRK7 (Homo sapiens, UniProt Q8WTQ7)
T11 construct: purchased ThermoFisher (SelectScreen, Z'-LYTE)
T11 sequence (Q8WTQ7 1-553): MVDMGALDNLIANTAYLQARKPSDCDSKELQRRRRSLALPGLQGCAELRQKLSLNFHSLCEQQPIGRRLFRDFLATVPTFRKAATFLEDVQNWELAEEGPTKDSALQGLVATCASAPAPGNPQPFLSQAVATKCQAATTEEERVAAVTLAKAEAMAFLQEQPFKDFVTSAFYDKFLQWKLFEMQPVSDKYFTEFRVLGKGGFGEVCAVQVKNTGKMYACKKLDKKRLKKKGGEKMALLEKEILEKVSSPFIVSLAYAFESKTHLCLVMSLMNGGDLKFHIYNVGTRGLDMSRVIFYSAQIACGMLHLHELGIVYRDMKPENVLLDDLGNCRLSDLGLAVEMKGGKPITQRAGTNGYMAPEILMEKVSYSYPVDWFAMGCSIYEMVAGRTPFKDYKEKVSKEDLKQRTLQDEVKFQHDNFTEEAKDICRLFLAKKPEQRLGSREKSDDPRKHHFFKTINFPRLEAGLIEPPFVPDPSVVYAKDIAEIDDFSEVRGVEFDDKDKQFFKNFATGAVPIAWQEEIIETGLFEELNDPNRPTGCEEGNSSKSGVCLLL
In short: as §1

NEK9 = biological target: T12, NEK9 (Homo sapiens, UniProt Q8TD19)
T12 construct: purchased ThermoFisher (SelectScreen, Z'-LYTE)
T12 sequence (Q8TD19 1-979): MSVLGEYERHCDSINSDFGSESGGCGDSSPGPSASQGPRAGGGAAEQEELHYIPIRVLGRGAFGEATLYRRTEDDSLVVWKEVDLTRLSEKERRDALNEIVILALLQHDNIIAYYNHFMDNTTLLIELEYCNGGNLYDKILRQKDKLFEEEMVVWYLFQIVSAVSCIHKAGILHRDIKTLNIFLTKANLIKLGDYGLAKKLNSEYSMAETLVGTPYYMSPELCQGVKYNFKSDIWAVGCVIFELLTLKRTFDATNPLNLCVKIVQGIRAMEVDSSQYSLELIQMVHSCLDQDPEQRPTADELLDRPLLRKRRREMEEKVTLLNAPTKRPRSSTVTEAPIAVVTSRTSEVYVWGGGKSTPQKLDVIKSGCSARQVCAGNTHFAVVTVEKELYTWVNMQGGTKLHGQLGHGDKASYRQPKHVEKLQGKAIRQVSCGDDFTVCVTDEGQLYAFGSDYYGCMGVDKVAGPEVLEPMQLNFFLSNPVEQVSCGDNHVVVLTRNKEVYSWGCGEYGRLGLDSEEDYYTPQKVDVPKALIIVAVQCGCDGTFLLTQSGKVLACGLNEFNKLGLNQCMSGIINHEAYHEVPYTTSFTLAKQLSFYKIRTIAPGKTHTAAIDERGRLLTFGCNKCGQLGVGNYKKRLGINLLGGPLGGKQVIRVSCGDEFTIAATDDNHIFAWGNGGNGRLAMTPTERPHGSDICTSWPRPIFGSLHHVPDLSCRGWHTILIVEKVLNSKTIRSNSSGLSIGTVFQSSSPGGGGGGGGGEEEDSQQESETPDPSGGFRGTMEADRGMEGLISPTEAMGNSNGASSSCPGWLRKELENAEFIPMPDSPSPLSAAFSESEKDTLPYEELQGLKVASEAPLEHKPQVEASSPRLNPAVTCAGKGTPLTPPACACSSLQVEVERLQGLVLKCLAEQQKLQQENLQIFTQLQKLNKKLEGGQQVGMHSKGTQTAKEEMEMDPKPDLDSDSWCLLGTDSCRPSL
In short: as §1

T1 sequence (Q9H4B4 whole entry): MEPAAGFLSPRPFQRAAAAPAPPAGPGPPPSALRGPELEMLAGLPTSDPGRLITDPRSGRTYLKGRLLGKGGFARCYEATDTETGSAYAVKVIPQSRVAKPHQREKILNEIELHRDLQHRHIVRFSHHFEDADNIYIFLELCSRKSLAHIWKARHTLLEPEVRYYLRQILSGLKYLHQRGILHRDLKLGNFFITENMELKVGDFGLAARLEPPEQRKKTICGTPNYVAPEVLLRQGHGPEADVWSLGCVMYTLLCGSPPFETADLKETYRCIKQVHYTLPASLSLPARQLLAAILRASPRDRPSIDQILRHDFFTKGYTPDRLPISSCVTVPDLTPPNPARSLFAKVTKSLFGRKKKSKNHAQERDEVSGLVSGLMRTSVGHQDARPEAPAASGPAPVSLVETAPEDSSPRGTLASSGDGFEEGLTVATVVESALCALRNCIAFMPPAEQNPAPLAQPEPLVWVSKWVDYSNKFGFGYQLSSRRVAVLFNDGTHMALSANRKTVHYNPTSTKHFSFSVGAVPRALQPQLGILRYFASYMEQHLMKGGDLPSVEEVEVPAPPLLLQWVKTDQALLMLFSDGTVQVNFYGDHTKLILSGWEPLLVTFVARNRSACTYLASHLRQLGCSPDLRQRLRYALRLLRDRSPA

| Compound | inhibition at 10 µM (PLK3) | inhibition at 10 µM (ABL2 (Arg)) | inhibition at 10 µM (FYN) | inhibition at 10 µM (NEK7) | inhibition at 10 µM (MARK1 (MARK)) | inhibition at 10 µM (NTRK3 (TRKC)) | inhibition at 10 µM (FRAP1 (mTOR)) | inhibition at 10 µM (PRKCH (PKC eta)) | inhibition at 10 µM (PDGFRB (PDGFR beta)) | inhibition at 10 µM (MAPK10 (JNK3)) | inhibition at 10 µM (GRK7) | inhibition at 10 µM (NEK9) | other results |
| --- | --- | --- | --- | --- | --- | --- | --- | --- | --- | --- | --- | --- | --- |
| Cc1ncc(-c2nc(Nc3ccc(C(=O)NCCN4CCCCC4)cc3)ncc2F)n1C(C)C [Compound 3] | 73% | 75% | 74% | 10% | 87% | 79% | 44% | 54% | 87% | 77% | 40% | 18% |  |
| Cc1cc(Nc2nc(N)nn2C(=O)NC(C)C)ccc1Cl [Compound 5] | 18% | 52% | 15% | -0.441% | 17% | 52% | -12% | -18% | 10% | 2.76% | 10% | 1.46% |  |
| XMD8-92 [Compound 2, reference compound] |  |  |  |  |  |  |  |  |  |  |  |  | PLK3 % Inhibition (PLK3; 10 µM compound, ATP Km app): 99%; ABL2 (Arg) % Inhibition (ABL2 (Arg); 10 µM compound, ATP Km app): 21%; FYN % Inhibition (FYN; 10 µM compound, ATP Km app): -14%; NEK7 % Inhibition (NEK7; 10 µM compound, ATP Km app): 11%; MARK1 (MARK) % Inhibition (MARK1 (MARK); 10 µM compound, ATP Km app): 11%; NTRK3 (TRKC) % Inhibition (NTRK3 (TRKC); 10 µM compound, ATP Km app): 64%; FRAP1 (mTOR) % Inhibition (FRAP1 (mTOR); 10 µM compound, ATP Km app): -15%; PRKCH (PKC eta) % Inhibition (PRKCH (PKC eta); 10 µM compound, ATP Km app): 41%; PDGFRB (PDGFR beta) % Inhibition (PDGFRB (PDGFR beta); 10 µM compound, ATP Km app): 7%; MAPK10 (JNK3) % Inhibition (MAPK10 (JNK3)): 9%; GRK7 % Inhibition (GRK7; 10 µM compound, ATP Km app): 39%; NEK9 % Inhibition (NEK9; 10 µM compound, ATP Km app): -0.532% |
